From patent publication US5321046A, “Hypocholesterolemic unsymmetrical dithiol ketals” (Bristol-Myers Squibb Company, priority 1992, dated 1994)
Read-outs that look alike come from different tables or passages of the source.

What was measured:
[1] = tested on: hydroxymethylglutaryl coenzyme A reductase (HMGcoA reductase); assay: HMGCo-A reductase suppression; format: cell-based
[2] = In vivo cholesterol biosynthesis in hamsters (plasma lipids); parameters: species or system hamsters (male F1 B)
Description: (c) In vivo cholesterol biosynthesis in hamsters was assayed using the following protocol: four groups of hamsters (male F1 B, fed 0.5% cholesterol 10% coconut oil), average weight 120-150 gm, were run in parallel (N=10 per group). The animals were initially fed the atherogenic diet for 20 days to determine their pre-drug plasma lipid levels. They were randomized so that each group had the same average plasma total cholesterol. The three of the four groups were started on their respective drug containing diet (day 0), while the remaining group served as controls.

HepG2 cells = assay: HepG2 Cell Culture Model--14C-Acetate Incorporation Assay (cholesterol biosynthesis); format: cell-based; conditions: Homo sapiens
Description: (a) Isolated Hepatocyte cholesterol biosynthesis assay: HepG2 Cell Culture Model--14C-Acetate Incorporation Assay
HepG2 cells obtained from the American Type Culture Collection were routinely passed in RPMI-1640 plus 10% fetal bovine serum (FBS) and were subculture into 35 mm diameter wells for experiments. […] The LDS medium supplement was prepared according to Cham et al., J. Lipid Res., 17: 176-181, (1976). After about 16 hours in LDS containing media, test compounds were added in dimethylsulfoxide vehicle (0.5% v/v final conc.) for the period of time indicated in the data (generally 4 hours). Cholesterol synthesis was then directly determined by the incorporation of 2-14C-acetate (1.8-3.0 mCi/mmol) into digitonin-precipitable sterols essentially as described for the rat hepatocyte method above. Greater than 97% of the radiolabelled sterol isolated by this procedure was cholesterol as judged by HPLC. Percent inhibition was calculated from the average of duplicates or triplicates vs. controls receiving vehicle.

[3] = plasma, Day 0 (pre-drug), atherogenic diet, N=10 per group
[4] = HepG2, read-out: HEPG2 Sterol biosynthesis inhibition @ 10 μM
[5] = HepG2 cells, 14C-acetate incorporation, generally 4 hours, read-out: HepG2 @ 10 μM (inhibition of cholesterol biosynthesis)

| Compound | HMGCo-A reductase suppression @ 10 μM [1] | reduction in LDL-cholesterol over control ([2]; F1 B hamsters, over control) | reduction in overall cholesterol over control ([2]; F1 B hamsters, over control) | LDL Cholesterol, Day 0 [2, 3] | Total cholesterol, Day 0 [2, 3] | LDL Cholesterol, Day 21 ([2]; plasma, Day 21, drug containing diet, control 333 ± 137) | Total cholesterol, Day 21 ([2]; plasma, Day 21, drug containing diet, control 407 ± 144) | inhibition at 10 µM (HepG2 cells; [4]) | inhibition at 10 µM (HepG2 cells; [5]) | down-regulation of HMGcoA reductase (in words) ([1]; in words) |
| --- | --- | --- | --- | --- | --- | --- | --- | --- | --- | --- |
| CC(C)=CCCC(C)=CCCC(C)=CCSC(C)(C)Sc1ccc(O)cc1 [Example 11, 4-[[1-Methyl-1-[(3,7,11-trimethyl-2,6,10-dodecatrienyl)thio]ethyl]thio]phenol] | 37% | -25% | -18% | 319 ± 89 mg/dL | 399 ± 82 mg/dL | 256 ± 85 mg/dL | 336 ± 90 mg/dL | 63% | 63% | – |
| CCOC(=O)C(C)(SCC=C(C)CCC=C(C)CCC=C(C)C)Sc1cc(C)c(O)c(C)c1 (stereo not drawn) [Example 27, Propanoic Acid, 2-[(4-hydroxy-3,5-dimethylphenyl)thio]-2-[(3,7,11-trimethyl-2,6,10-dodecatrienyl)thio]ethyl ester] | 51% | – | – | – | – | – | – | 79% | 79% | down-regulate the key enzyme in the cholesterol biosynthesis |
| CC(C)=CCCC(C)=CCCC(C)=CCSC(C)(C)Sc1ccc(F)cc1 [Example 36, 4-Fluoro-1-[[1-methyl-1-[(3,7,11-trimethyl-2,6,10-dodecatrienyl)thio]ethyl]thio]benzene] | – | – | – | – | – | – | – | – | 20% | – |
| CC(=O)Oc1ccc(SC(C)(C)SCC=C(C)CCC=C(C)CCC=C(C)C)c(C)c1 [Example 15, 3-Methyl-4-[[1-methyl-1-[(3,7,11-trimethyl-2,6,10-dodecatrienyl)thio]ethyl]thio]phenol acetate] | – | – | – | – | – | – | – | – | 75% | – |
